Laboratory results from US8389541B2, “Inhibitors of protein tyrosine kinase activity” (MethylGene Inc., priority 2007, dated 2013).

molecular target: T1, VEGF receptor KDR (Homo sapiens, UniProt P35968); assay: In vitro receptor tyrosine kinase assay (DELFIA), VEGF receptor KDR; assay type: biochemical; details: GST-VEGFR2 806-1356, 0.6 uM ATP; read-out: VEGFR IC50
T1 construct: made in house; host or cells: Sf9 cells (Spodoptera frugiperda), baculovirus
Source text: In the case of VEGF receptor KDR a 1.6-kb cDNA corresponding to the catalytic domain of VEGFR2 or KDR (Genbank accession number AF035121 amino acid 806 to 1356) is cloned into the Pst I site of the pDEST20 Gateway vector (Invitrogen) for the production of a GST-tagged version of that enzyme.
The GST-VEGFR2806-1356 protein is expressed in Sf9 cells (Spodoptera frugiperda) upon infection with recombinant baculovirus construct.
The supernatant is loaded onto a GST-agarose column (Sigma) equilibrated with PBS pH 7.3. Following a four column volume (CV) wash with PBS pH 7.3+1% Triton X-100 and 4 CV wash with buffer B (50 mM Tris pH 8.0, 20% glycerol and 100 mM NaCl), bound proteins are step eluted with 5 CV of buffer B supplemented with 5 mM DTT and 15 mM glutathion. […] Final GST-VEGFR2806-1356 protein preparations concentrations are about 0.7 mg/ml with purity approximating 70%.

T1 sequence (P35968 806-1356): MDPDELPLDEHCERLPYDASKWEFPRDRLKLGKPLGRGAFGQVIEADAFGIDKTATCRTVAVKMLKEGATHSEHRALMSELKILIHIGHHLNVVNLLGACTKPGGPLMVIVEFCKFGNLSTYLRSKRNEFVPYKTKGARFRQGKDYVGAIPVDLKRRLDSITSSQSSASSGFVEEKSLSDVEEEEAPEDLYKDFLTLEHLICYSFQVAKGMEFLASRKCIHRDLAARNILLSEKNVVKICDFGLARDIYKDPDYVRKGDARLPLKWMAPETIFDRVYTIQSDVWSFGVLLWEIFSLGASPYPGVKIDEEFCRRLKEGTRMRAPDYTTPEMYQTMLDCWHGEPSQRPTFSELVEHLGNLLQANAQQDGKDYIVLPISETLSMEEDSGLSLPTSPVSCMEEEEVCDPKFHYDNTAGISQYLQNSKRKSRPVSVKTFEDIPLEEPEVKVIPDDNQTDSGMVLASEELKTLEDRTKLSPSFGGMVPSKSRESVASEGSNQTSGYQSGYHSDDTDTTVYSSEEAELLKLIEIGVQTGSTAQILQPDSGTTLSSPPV

Row | SMILES | IC50 [nM]
1 | COCCNCc1ccc(-c2cc3nccc(Oc4ccc(NC(=O)C5(C(=O)Nc6ccccc6OC)CC5)cc4F)c3s2)cc1 | < 250
2 | COCCNCc1ccc(-c2cc3nccc(Oc4ccc(NC(=S)NC(=O)Cc5ccccc5)cc4F)c3s2)o1 | < 250
3 | COCCNCc1ccc(-c2cc3nccc(Oc4ccc(NC(=O)CC(=O)Nc5ccccc5)cc4F)c3s2)cc1 | < 250

More lines, now with the values ahead:

Row | IC50 [nM] | SMILES
4 | < 250 | COC[C@H](C)NCc1ccc(-c2cc3nccc(Oc4ccc(NC(=S)NC(=O)Cc5ccc(F)cc5)cc4F)c3s2)cc1
5 | < 250 | COCCNCc1ccc(-c2cc3nccc(Oc4ccc(NC(=S)NC(=O)Cc5ccccc5F)cc4F)c3s2)cc1
6 | < 250 | CS(=O)(=O)CCNCc1ccc(-c2cc3nccc(Oc4ccc(NC(=S)NC(=O)Cc5ccc(F)cc5)cc4F)c3s2)cc1
7 | < 250 | CS(=O)(=O)CCNCc1ccc(-c2cc3nccc(Oc4ccc(NC(=S)NC(=O)Cc5ccccc5)cc4F)c3s2)cc1

tested on: A549 cells; assay: Wound healing assay in A549 cells (HGF-stimulated); assay type: cell-based; details: Homo sapiens, last dose that inhibited gap closing by more than 25%, 24 h, read-out: A549 WOUND_HEALING IC50
Protocol: Wound healing assay in A549 cells. A549 cells (ATCC) are seeded in DMEM low glucose medium complemented with 10% FBS into 24-well plates at a density of 7.5×10^4 cells/well and grown to confluence (48 h). Inhibitors were added to the medium at a range of doses (0.00032-10 uM) for 3 h at which point a gap is introduced by scraping cells with a P1000 pipette tip. Cells are then stimulated to migrate by the addition of HGF (in the form of conditioned medium from 293T cells over-expressing the human HGF gene) and the culture is continued for 24 h. […] For the purpose of standardization, a control is carried on every assay plates.

Row | SMILES | IC50 [nM]
8 | COCCNCc1ccc(-c2cc3nccc(Oc4ccc(NC(=O)C5(C(=O)Nc6ccccc6OC)CC5)cc4F)c3s2)cc1 | 250 to 500
9 | COCCNCc1ccc(-c2cc3nccc(Oc4ccc(NC(=S)NC(=O)Cc5ccccc5)cc4F)c3s2)o1 | 250 to 500
10 | COCCNCc1ccc(-c2cc3nccc(Oc4ccc(NC(=O)CC(=O)Nc5ccccc5)cc4F)c3s2)cc1 | 250 to 500

The next lines start with the values.

Row | IC50 [nM] | SMILES
11 | 250 to 500 | COC[C@H](C)NCc1ccc(-c2cc3nccc(Oc4ccc(NC(=S)NC(=O)Cc5ccc(F)cc5)cc4F)c3s2)cc1
12 | 250 to 500 | COCCNCc1ccc(-c2cc3nccc(Oc4ccc(NC(=S)NC(=O)Cc5ccccc5F)cc4F)c3s2)cc1
13 | 250 to 500 | CS(=O)(=O)CCNCc1ccc(-c2cc3nccc(Oc4ccc(NC(=S)NC(=O)Cc5ccc(F)cc5)cc4F)c3s2)cc1
14 | 250 to 500 | CS(=O)(=O)CCNCc1ccc(-c2cc3nccc(Oc4ccc(NC(=S)NC(=O)Cc5ccccc5)cc4F)c3s2)cc1

tested on: DU145 cells; assay: Scatter assay in DU145 cells (HGF-stimulated); assay type: cell-based; details: Homo sapiens, DU-145, last dose that created an inhibitory effect on scattering, 24 h, read-out: DU145 SCATT. INHIB IC50
Protocol: Scatter assays in DU145. The scatter assay is performed as described previously (Miura H, Nishimura K, Tsujimura A, Matsumiya K, Matsumoto K, Nakamura T, et al. Effects of hepatocyte growth factor on E-cadherin-mediated cell-cell adhesion in DU145 prostate cancer cells. Urology 2001; 58(6):1064-9) for DU145 prostate carcinoma cells with the indicated modifications. In brief, DU145 cells (ATCC) are seeded in 24-well plates at a density of 7×10^3 cells/well in MEM medium complemented with 10% FBS and cultured for 48 h, to allow the formation of small compact colonies of cells. Inhibitors are subsequently added at a range of doses (0.00032-10 uM) for 3 h. Cells are then stimulated to migrate by the addition of HGF (in the form of conditioned medium from 293T cells over-expressing the human HGF gene) and the culture is continued for another 24 h. The IC50 values is defined as the last dose that created an inhibitory effect on scattering. For the purpose of standardization a control is carried on every test plates for the DU145 scattering assays.

Row | SMILES | IC50 [nM]
15 | COCCNCc1ccc(-c2cc3nccc(Oc4ccc(NC(=O)C5(C(=O)Nc6ccccc6OC)CC5)cc4F)c3s2)cc1 | 250 to 500
16 | COCCNCc1ccc(-c2cc3nccc(Oc4ccc(NC(=S)NC(=O)Cc5ccccc5)cc4F)c3s2)o1 | > 1000
17 | COCCNCc1ccc(-c2cc3nccc(Oc4ccc(NC(=O)CC(=O)Nc5ccccc5)cc4F)c3s2)cc1 | 250 to 500

Results, then the compound that gave them:

Row | IC50 [nM] | SMILES
18 | 250 to 500 | COC[C@H](C)NCc1ccc(-c2cc3nccc(Oc4ccc(NC(=S)NC(=O)Cc5ccc(F)cc5)cc4F)c3s2)cc1
19 | 250 to 500 | COCCNCc1ccc(-c2cc3nccc(Oc4ccc(NC(=S)NC(=O)Cc5ccccc5F)cc4F)c3s2)cc1
20 | 250 to 500 | CS(=O)(=O)CCNCc1ccc(-c2cc3nccc(Oc4ccc(NC(=S)NC(=O)Cc5ccc(F)cc5)cc4F)c3s2)cc1
21 | 250 to 500 | CS(=O)(=O)CCNCc1ccc(-c2cc3nccc(Oc4ccc(NC(=S)NC(=O)Cc5ccccc5)cc4F)c3s2)cc1

molecular target: T2, c-Met (Homo sapiens, UniProt P08581); assay: Inhibition of c-Met phosphorylation in MKN45 cells (direct ELISA); assay type: cell-based; details: 3 h treatment, read-out: CMET ELISA IN MKN45 IC50
T2 construct: endogenous in cells; host or cells: MKN45 gastric carcinoma cells
T2 sequence (P08581 25-1390): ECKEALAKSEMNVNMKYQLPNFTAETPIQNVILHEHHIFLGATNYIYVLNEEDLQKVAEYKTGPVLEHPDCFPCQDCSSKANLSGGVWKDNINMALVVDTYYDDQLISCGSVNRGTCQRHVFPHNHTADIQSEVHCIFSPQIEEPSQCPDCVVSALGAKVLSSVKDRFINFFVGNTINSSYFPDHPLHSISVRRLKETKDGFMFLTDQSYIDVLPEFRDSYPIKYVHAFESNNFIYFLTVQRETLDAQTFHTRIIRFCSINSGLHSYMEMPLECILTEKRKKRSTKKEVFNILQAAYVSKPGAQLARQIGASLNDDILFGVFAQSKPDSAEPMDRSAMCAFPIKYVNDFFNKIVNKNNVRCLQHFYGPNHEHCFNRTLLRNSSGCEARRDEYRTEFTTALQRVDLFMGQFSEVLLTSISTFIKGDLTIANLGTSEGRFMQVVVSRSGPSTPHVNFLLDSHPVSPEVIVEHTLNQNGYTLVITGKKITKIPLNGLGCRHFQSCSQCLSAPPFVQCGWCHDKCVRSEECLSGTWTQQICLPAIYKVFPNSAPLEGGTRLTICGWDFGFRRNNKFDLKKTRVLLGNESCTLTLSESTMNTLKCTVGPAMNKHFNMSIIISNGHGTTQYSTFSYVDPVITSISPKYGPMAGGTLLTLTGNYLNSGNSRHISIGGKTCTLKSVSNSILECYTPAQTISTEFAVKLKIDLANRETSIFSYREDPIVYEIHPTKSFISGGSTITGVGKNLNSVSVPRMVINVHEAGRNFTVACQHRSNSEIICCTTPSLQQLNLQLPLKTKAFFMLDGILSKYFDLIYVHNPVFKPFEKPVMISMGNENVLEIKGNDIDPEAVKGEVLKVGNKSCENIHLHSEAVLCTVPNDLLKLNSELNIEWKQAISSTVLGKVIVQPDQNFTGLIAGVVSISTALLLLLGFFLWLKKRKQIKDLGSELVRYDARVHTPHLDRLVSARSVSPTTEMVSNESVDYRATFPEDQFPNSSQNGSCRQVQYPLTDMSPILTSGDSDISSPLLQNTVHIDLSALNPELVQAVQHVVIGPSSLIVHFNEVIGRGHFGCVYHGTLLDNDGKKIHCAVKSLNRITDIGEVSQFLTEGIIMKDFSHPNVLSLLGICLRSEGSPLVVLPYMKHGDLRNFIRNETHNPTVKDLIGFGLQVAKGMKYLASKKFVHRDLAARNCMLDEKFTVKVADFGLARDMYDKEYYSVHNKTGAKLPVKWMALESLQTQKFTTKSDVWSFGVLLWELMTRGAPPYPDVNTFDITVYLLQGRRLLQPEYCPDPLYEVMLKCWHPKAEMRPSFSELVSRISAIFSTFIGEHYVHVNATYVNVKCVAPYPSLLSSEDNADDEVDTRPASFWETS
Source text: The following assay is used to determine inhibition of c-Met phosphorylation.
The c-Met receptor is expressed in numerous cancer cell lines derived from tumors of epithelial origin. In MKN45 gastric carcinoma cells the c-Met gene is amplified, resulting in several-fold overexpression of the receptor and its constitutive activation. For this reason constitutively high levels of ERK1/2 are also detected in these cells, independently of HGF-added stimulation (Smolen G A, Sordella R, Muir B, Mohapatra G, Barmettler A, Archibald H, et al. Amplification of MET may identify a subset of cancers with extreme sensitivity to the selective tyrosine kinase inhibitor PHA-665752. Proc Natl Acad Sci USA 2006). We have developed a sensitive method to follow c-Met phosphorylation in these cells. In previous studies with earlier generation c-Met inhibitors, we established that the IC50s for the inhibition of c-Met phosphorylation were identical using this novel ELISA approach and standard western blot procedure, with antibodies directed against the activating autocatalysis tyrosine residues of c-MET (Tyr Y1230-34-35).
Cell treatments: MKN45 cells are seeded into wells of 96-well plates at a density of 3×10^4 cells/well in RPMI medium supplemented with 10% FBS. HA-TPR-RON expressing 293T (clone 18) cells are seeded into wells of 96-well plates at a density of 3×10^4 cells/well in DMEM medium supplemented with 10% FBS. Cells are grown for 48 h prior to treatments with compounds of interest. Inhibitors are added to the medium in triplicate wells at the indicated doses. After 3 h of treatment, media is aspirated and cells are lysed by one freeze-thaw cycle in 50 μL/well hypotonic lysis buffer (25 mM HEPES pH 7.5, 10 mM NaCl with 1 mM 4-(2-aminoethyl)benzenesulfonyl fluoride hydrochloride, 200 μM sodium orthovanadate, 1 mM sodium fluoride, 10 μg/mL of leupeptin, 10 μg/mL of aprotinin/mL, 1 μg/mL of pepstatin and 50 μg/mL Na-p-tosyl-L-lysine chloromethyl ketone hydrochloride.
Detection of phosphorylated c-Met by direct ELISA: Lysate samples (5 μL) from wells of treatment plates are transferred to 80 μL of binding buffer (25 mM HEPES pH 7.5, 200 mM NaCl) in wells of high binding white polysterene 96-well plates (Corning). After an overnight protein binding incubation at 4° C., lysates are aspirated and wells are blocked for 1 h at 37° C. in TBST supplemented with 5% BSA. Plates are incubated with the primary antibodies anti-phospho-Tyrosine (Millipore, 4G10) diluted 1/15000 in TBST supplemented with 5% BSA for 1 h at room temperature. Plates are washed 3 times on a plate washer (SkanWasher, Molecular Devises), and incubated with the reporter antibody […] (Sigma) diluted 1/15000 in TBST supplemented with 5% BSA, for 1 h at room temperature. Plates are washed 3 times with TBST using on a plate washer and subsequently incubated with chemiluminescent substrate solution (ECL, Roche). Luminescence signal is captured on a Polar Star Optima apparatus (BMG LabTech).
Average values of the triplicate samples are used to prepare IC50 curves using a 4-parameter fit model. These curves are calculated using, for example, GraFit 5.0 software. For assay standardization purpose, an internal control is included on each experimental test plate.

Row | SMILES | IC50 [nM]
22 | COCCNCc1ccc(-c2cc3nccc(Oc4ccc(NC(=O)C5(C(=O)Nc6ccccc6OC)CC5)cc4F)c3s2)cc1 | 500 to 1000
23 | COCCNCc1ccc(-c2cc3nccc(Oc4ccc(NC(=S)NC(=O)Cc5ccccc5)cc4F)c3s2)o1 | < 250
24 | COCCNCc1ccc(-c2cc3nccc(Oc4ccc(NC(=O)CC(=O)Nc5ccccc5)cc4F)c3s2)cc1 | 250 to 500

Other lines, results leading:

Row | IC50 [nM] | SMILES
25 | < 250 | COC[C@H](C)NCc1ccc(-c2cc3nccc(Oc4ccc(NC(=S)NC(=O)Cc5ccc(F)cc5)cc4F)c3s2)cc1
26 | < 250 | COCCNCc1ccc(-c2cc3nccc(Oc4ccc(NC(=S)NC(=O)Cc5ccccc5F)cc4F)c3s2)cc1
27 | < 250 | CS(=O)(=O)CCNCc1ccc(-c2cc3nccc(Oc4ccc(NC(=S)NC(=O)Cc5ccc(F)cc5)cc4F)c3s2)cc1
28 | < 250 | CS(=O)(=O)CCNCc1ccc(-c2cc3nccc(Oc4ccc(NC(=S)NC(=O)Cc5ccccc5)cc4F)c3s2)cc1

molecular target: recombinant human c-Met/HGF receptor (Homo sapiens, UniProt P08581); assay: In vitro receptor tyrosine kinase assay (DELFIA), c-Met/HGF receptor; details: not given
Sequence (P08581 1078-1337): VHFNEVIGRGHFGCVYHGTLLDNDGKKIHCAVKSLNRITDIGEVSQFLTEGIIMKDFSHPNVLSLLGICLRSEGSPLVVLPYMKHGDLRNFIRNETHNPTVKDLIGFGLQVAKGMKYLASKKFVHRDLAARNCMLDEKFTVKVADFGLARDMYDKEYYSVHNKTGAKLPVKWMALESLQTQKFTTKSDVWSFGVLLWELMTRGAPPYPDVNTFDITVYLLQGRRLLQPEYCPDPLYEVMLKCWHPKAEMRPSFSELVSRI

Row | SMILES | IC50 [nM]
29 | COCCNCc1ccc(-c2cc3nccc(Oc4ccc(NC(=O)C5(C(=O)Nc6ccccc6OC)CC5)cc4F)c3s2)cc1 | < 250
30 | COCCNCc1ccc(-c2cc3nccc(Oc4ccc(NC(=S)NC(=O)Cc5ccccc5)cc4F)c3s2)o1 | < 250
31 | COCCNCc1ccc(-c2cc3nccc(Oc4ccc(NC(=O)CC(=O)Nc5ccccc5)cc4F)c3s2)cc1 | < 250

Further lines, results first:

Row | IC50 [nM] | SMILES
32 | < 250 | COC[C@H](C)NCc1ccc(-c2cc3nccc(Oc4ccc(NC(=S)NC(=O)Cc5ccc(F)cc5)cc4F)c3s2)cc1
33 | < 250 | COCCNCc1ccc(-c2cc3nccc(Oc4ccc(NC(=S)NC(=O)Cc5ccccc5F)cc4F)c3s2)cc1
34 | < 250 | CS(=O)(=O)CCNCc1ccc(-c2cc3nccc(Oc4ccc(NC(=S)NC(=O)Cc5ccc(F)cc5)cc4F)c3s2)cc1
35 | < 250 | CS(=O)(=O)CCNCc1ccc(-c2cc3nccc(Oc4ccc(NC(=S)NC(=O)Cc5ccccc5)cc4F)c3s2)cc1
